# Source: patent publication US20260376293A1, “METHODS FOR STUDYING GPR158 PHARMACOLOGY AND IDENTIFICATION OF ITS LIGANDS” (UNIVERSITY OF FLORIDA RESEARCH FOUNDATION, INCORPORATED, priority 2022, published 2026)
# Target: T1, GPR158 (Homo sapiens, UniProt Q5T848)
# T1 construct: expressed in transfected cells; host or cells: HEK293T/17
# T1 sequence (Q5T848 24-1215): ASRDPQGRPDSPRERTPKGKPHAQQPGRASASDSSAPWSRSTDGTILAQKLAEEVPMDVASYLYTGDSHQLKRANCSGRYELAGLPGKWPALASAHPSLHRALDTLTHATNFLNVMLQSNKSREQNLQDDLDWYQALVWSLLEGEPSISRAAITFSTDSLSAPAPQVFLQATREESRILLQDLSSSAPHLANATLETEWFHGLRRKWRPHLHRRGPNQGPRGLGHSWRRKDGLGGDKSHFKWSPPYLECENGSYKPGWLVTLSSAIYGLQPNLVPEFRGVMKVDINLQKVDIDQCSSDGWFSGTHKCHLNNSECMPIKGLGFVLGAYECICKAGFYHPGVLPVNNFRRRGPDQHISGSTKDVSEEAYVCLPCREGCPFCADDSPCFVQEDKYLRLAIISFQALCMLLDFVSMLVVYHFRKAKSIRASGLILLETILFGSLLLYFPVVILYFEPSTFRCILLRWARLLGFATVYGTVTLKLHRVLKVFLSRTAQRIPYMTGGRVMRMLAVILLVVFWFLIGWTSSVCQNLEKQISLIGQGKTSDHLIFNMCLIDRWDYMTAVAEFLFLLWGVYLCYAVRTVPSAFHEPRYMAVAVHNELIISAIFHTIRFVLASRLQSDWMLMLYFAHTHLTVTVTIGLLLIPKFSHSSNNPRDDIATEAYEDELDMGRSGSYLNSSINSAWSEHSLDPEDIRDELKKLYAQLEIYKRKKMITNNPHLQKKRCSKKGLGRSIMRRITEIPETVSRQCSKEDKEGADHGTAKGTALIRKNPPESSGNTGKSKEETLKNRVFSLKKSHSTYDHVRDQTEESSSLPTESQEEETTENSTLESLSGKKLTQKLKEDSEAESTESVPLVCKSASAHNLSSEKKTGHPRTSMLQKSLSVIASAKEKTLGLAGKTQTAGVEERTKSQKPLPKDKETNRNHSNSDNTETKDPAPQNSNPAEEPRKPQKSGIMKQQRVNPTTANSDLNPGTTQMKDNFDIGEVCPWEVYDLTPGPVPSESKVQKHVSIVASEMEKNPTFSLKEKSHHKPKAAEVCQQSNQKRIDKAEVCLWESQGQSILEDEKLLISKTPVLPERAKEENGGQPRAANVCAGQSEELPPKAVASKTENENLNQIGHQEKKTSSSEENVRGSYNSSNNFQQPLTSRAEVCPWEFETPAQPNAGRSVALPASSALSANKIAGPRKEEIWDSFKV
# T1 sequence (P49802 1-495 partner): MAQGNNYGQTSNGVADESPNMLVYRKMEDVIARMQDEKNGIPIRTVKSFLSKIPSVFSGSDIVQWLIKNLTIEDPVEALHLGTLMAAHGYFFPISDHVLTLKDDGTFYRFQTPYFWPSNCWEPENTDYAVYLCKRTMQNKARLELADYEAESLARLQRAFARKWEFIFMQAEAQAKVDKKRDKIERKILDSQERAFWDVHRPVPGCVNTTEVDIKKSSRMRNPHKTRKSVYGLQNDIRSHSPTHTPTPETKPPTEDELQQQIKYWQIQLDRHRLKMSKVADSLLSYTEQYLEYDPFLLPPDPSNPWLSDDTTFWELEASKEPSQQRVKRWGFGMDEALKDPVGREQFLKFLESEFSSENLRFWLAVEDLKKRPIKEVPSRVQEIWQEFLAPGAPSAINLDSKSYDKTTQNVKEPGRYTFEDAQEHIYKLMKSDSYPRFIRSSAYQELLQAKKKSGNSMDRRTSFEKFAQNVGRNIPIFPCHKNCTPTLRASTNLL
# T1 sequence (O14775 1-395 partner): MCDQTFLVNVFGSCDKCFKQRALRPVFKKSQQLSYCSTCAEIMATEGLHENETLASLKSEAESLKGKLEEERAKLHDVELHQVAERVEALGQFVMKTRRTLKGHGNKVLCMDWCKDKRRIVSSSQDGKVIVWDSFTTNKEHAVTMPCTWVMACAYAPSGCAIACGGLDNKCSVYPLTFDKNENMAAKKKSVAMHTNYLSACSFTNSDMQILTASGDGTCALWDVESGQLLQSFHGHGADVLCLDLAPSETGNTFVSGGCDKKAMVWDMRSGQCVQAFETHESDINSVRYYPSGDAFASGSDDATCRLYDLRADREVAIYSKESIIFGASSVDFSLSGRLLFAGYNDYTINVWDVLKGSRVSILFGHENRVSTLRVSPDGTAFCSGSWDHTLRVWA
# Assay: cADDIS fluorescence-based cAMP assay, HEK293T/17 cells
# Assay type: cell-based
# Details: 500 μM Gly, 15 min, forskolin; GPR158-RGS7/Gβ5, HEK293T/17
# Procedure: B. Effect of Gly on cAMP levels measured using CADDIS assay in HEK293T/17 cells (Gly conc. 500 μM). Binding of Gly to Cache domain of GPR158 blocks the GAP activity of GPR158-RGS7/Gβ5 complex on Gαo, resulting in lowering of CAMP levels. Data shown here represent the normalized fluorescence intensity upon Gly treatment (Mean±SEM from 3 independent experiments, Unpaired t-test, **p=0.0016)
# In an effort to study the modulatory effects of Gly on CAMP through GPR158, the inventors took advantage of a fluorescence-based cAMP sensor cADDIS (Montana molecular) which involves Bacmam virus-based transduction of sensor into the cells (FIG. 17A).
# Briefly, HEK293T/17 cells were co-transfected with plasmids for GPR158, RGS7 and Gβ5 (150 μg/ml, GPR158: RGS7: Gβ5:4:1:1) by electroporation (Maxcyte). […] Before Glycine treatment, baseline fluorescence intensity was recorded using a fluorescence intensity module (FI Ex: 485 nm, Em: 520 nm) in Pherastar FSX microplate reader (BMG Labtech) followed by forskolin treatment for 15 min. Subsequently, the cells were treated with 500 μM Gly and fluorescence intensity was recorded. […]
# The cADDIS assay for Gαi results in increase in fluorescence when CAMP is decreasing in the cells after drug treatment.
structure (smiles),measurement,value
NCC(=O)O [glycine],cADDIS fluorescence change (cAMP decrease),significant increase in fluorescence
